Our source for the CC50, EC50 and melting point values is patent US20150175608A1, “NOVEL 4-SUBSTITUTED 1,3-DIHYDRO-2H-BENZIMIDAZOL-2-ONE DERIVATIVES SUBSTITUTED WITH BENZIMIDAZOLES AS RESPIRATORY SYNCYTIAL VIRUS ANTIVIRAL AGENTS” (Janssen R&D Ireland, priority 2012, published 2015).

As a reminder, the CC50 is the concentration at which the toxic effect on the cells reaches its halfway point. A lower CC50 goes with greater toxicity to the cells. The term EC50 denotes the concentration needed to bring the measured effect to its halfway point. What is called melting point is the temperature of the solid-liquid transition.

A short description of data set [1]: in vitro. It is filed as cell-based. The note with it: human. The protocol: (§1) Antiviral Activity Black 96-well clear-bottom microtiter plates (Corning, Amsterdam, The Netherlands) were filled in duplicate using a customized robot system with serial 4-fold dilutions of compound in a final volume of 50 μl culture medium [RPMI medium without phenol red, 10% FBS, 0.04% gentamycin (50 mg/ml) and 0.5% DMSO]. Then, 100 μl of a HeLa cell suspension (5×10^4 cells/ml) in culture medium was added to each well followed by the addition of 50 μl rgRSV224 (MOI=0.02) virus in culture medium using a multidrop dispenser (Thermo Scientific, Erembodegem, Belgium). rgRSV224 virus is an engineered virus that includes an additional GFP gene (Hallak et al, 2000) and was in-licensed from the NIH (Bethesda, Md., USA). Medium, virus- and mock-infected controls were included in each test. Cells were incubated at 37° C. in a 5% CO2 atmosphere. Three days post-virus exposure, viral replication was quantified by measuring GFP expression in the cells by a MSM laser microscope (Tibotec, Beerse, Belgium). The EC50 was defined as the 50% inhibitory concentration for GFP expression. In parallel, compounds were incubated for three days in a set of white 96-well microtiter plates (Corning) and the cytotoxicity of compounds in HeLa cells was determined by measuring the ATP content of the cells using the ATPlite kit (PerkinElmer, Zaventem, Belgium) according to the manufacturer's instructions. The CC50 was defined as the 50% concentration for cytotoxicity.

The subject of data set [2] is rgRSV224 virus. The data set is described as follows: Antiviral activity: rgRSV224 replication (GFP expression) in HeLa cells. It is filed as cell-based. As to conditions: human respiratory syncytial virus, 72 h, read-out: WT activity EC50. The protocol:
as §1

The molecule `Cc1cccc2c1n(C1CC1)c(=O)n2Cc1nc2cc(Cl)ccc2n1CCCS(C)(=O)=O` [Compound P3, 1-((5-Chloro-1-(3-(methylsulfonyl)propyl)-1H-benzo[d]imidazol-2-yl)-methyl)-3-cyclopropyl-4-methyl-1H-benzo[d]imidazol-2(3H)-one] gave a CC50 at 3 days in data set [1] of 64600 nM. Besides, the EC50 in data set [2] was found to be 5.1 nM.

`CS(=O)(=O)CCCn1c(Cn2c(=O)n(C3CC3)c3c(C(F)(F)F)cccc32)nc2cc(Cl)ccc21` [Compound P5, 1-((5-chloro-1-(3-(methylsulfonyl)propyl)-1H-benzo[d]imidazol-2-yl)-methyl)-3-cyclopropyl-4-(trifluoromethyl)-1H-benzo[d]imidazol-2(3H)-one]: the melting point came to 210.18 °C. Moreover, in data set [1], the CC50 at 3 days was above 100000 nM. Also, the EC50 in data set [2] was 28 nM.

For `CS(=O)(=O)CCCn1c(Cn2c(=O)n(C3CC3)c3c(Cl)cncc32)nc2cc(Cl)ccc21` [Compound P1, 7-Chloro-3-((5-chloro-1-(3-(methylsulfonyl)-propyl)-1H-benzo[d]imidazol-2-yl)methyl)-1-cyclopropyl-1H-imidazo[4,5-c]pyridin-2(3H)-one], the CC50 at 3 days in data set [1] was above 100000 nM. In data set [2], the EC50 stood at 1.7 nM.

Molecule `CS(=O)(=O)CCCn1c(Cn2c(=O)n(CC(F)(F)F)c3c(Cl)cncc32)nc2cc(Cl)ccc21` [Compound P6, 7-chloro-3-((5-chloro-1-(3-(methylsulfonyl)propyl)-1H-benzo[d]imidazol-2-yl)methyl)-1-(2,2,2-trifluoroethyl)-1H-imidazo[4,5-c]pyridin-2(3H)-one] showed a melting point of 232.82 °C. Also, the CC50 at 3 days in data set [1] was above 100000 nM. Moreover, in data set [2], the EC50 is 9 nM.

In data set [1], `Cc1cncc2c1n(C1CC1)c(=O)n2Cc1nc2cc(Cl)ccc2n1CCCS(C)(=O)=O` [Compound P4, 3-((5-chloro-1-(3-(methylsulfonyl)propyl)-1H-benzo[d]imidazol-2-yl)methyl)-1-cyclopropyl-7-methyl-1H-imidazo[4,5-c]pyridin-2(3H)-one] displayed a CC50 at 3 days above 100000 nM. For the same molecule, in data set [2], the EC50 worked out at 1.4 nM.

Molecule `CS(=O)(=O)CCCn1c(Cn2c(=O)n(CC(F)(F)F)c3c(Cl)cccc32)nc2cc(Cl)ccc21` [Compound P7, 4-chloro-1-((5-chloro-1-(3-(methylsulfonyl)propyl)-1H-benzo[d]imidazol-2-yl)methyl)-3-(2,2,2-trifluoroethyl)-1H-benzo[d]imidazol-2(3H)-one] had a CC50 at 3 days in data set [1] of 69000 nM. Besides, the EC50 in data set [2] worked out at 12 nM.

Take `CS(=O)(=O)CCCn1c(Cn2c(=O)n(C3CC3)c3c(Cl)cccc32)nc2cc(Cl)ccc21` [Compound P2, 4-Chloro-1-((5-chloro-1-(3-(methylsulfonyl)propyl)-1H-benzo[d]imidazol-2-yl)methyl)-3-cyclopropyl-1H-benzo[d]imidazol-2(3H)-one]: the CC50 at 3 days in data set [1] is above 100000 nM. Besides, the EC50 in data set [2] came to 7.4 nM.
